Results published in patent publication US20230081426A1, “COMPOUNDS AND METHODS FOR KRAS MODULATION AND INDICATIONS THEREFOR” (Plexxikon Inc., priority 2020, published 2023).

Columns and labels:
[1] = target: T1, G12D-mutant human KRAS (amino acid residues 1-188) (Homo sapiens, UniProt P01116, G12D); assay: KRAS Binding Disruption Assay (AlphaScreen; biotinylated KRpep-2d analogue or RAF1-RBD), G12D; settings: KRAS G12D; geometric mean; read-out: KRAS GMean IC50 (uM) MUTATION: G12D
T1 construct: G12D or G12C-mutant human KRAS (amino acid residues 1-188) with FLAG tag; made in house; host or cells: E. coli
How it was run: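 Displacement format with mutant KRAS, biotinylated KRpep-2d analogue or RAF1-RBD (5-20 nM each) at pH 7.5 with 5 mM MgCl2.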

[2] = target: T2, G12V-mutant human KRAS (amino acid residues 1-188) (Homo sapiens, UniProt P01116, G12V); assay: KRAS Binding Competition Assay (AlphaScreen; biotinylated KRpep-2d analogue), G12V; settings: geometric mean, read-out: KRAS GMean IC50 (uM) MUTATION: G12V
T2 construct: G12V-mutant human KRAS (amino acid residues 1-188) with FLAG tag was purified from E. coli; made in house; host or cells: E. coli

Row | Structure (SMILES) | IC50 [1] | IC50 [2]
1 | CN1CCC[C@H]1COc1nc(N2[C@@H]3CC[C@H]2CNC3)c2ccc(-c3cccc(O)c3)cc2n1 [P-0285, 3-(4-((1R,5S)-3,8-diazabicyclo[3.2.1]octan-8-yl)-2-(((S)-1-methylpyrrolidin-2-yl)methoxy)quinazolin-7-yl)phenol] | 100 to 1000 µM | 100 to 1000 µM
2 | CN1CCC[C@H]1COc1nc(N2C[C@H]3CC[C@@H](C2)N3)c2ccc(-c3c[nH]c4cccc(Cl)c34)cc2n1 [P-0255, 4-((1R,5S)-3,8-diazabicyclo[3.2.1]octan-3-yl)-7-(4-chloro-1H-indol-3-yl)-2-(((S)-1-methylpyrrolidin-2-yl)methoxy)quinazoline] | 10 to 100 µM | 10 to 100 µM
3 | CN1CCC[C@H]1COc1nc(N2C[C@H]3CC[C@@H](C2)N3)c2cc(Cl)c(-c3c[nH]c4ccc(Cl)cc34)c(F)c2n1 [P-0323, 4-((1R,5S)-3,8-diazabicyclo[3.2.1]octan-3-yl)-6-chloro-7-(5-chloro-1H-indol-3-yl)-8-fluoro-2-(((S)-1-methylpyrrolidin-2-yl)methoxy)quinazoline] | 0.0001 to 10 µM | 10 to 100 µM
4 | Cc1cccc2c(O)nn(-c3ccc4c(N5C[C@H]6CC[C@@H](C5)N6)nc(OC[C@@H]5CCCN5C)nc4c3F)c12 [P-0462, 1-(4-((1R,5S)-3,8-diazabicyclo[3.2.1]octan-3-yl)-8-fluoro-2-(((S)-1-methylpyrrolidin-2-yl)methoxy)quinazolin-7-yl)-7-methyl-1H-indazol-3-ol] | 10 to 100 µM | 10 to 100 µM
5 | O=Cc1cccc2[nH]cc(-c3c(F)cc4c(N5C[C@H]6CC[C@@H](C5)N6)nc(OCC56CCCN5CCC6)nc4c3F)c12 [P-0624, 3-(4-((1R,5S)-3,8-diazabicyclo[3.2.1]octan-3-yl)-6,8-difluoro-2-((tetrahydro-1H-pyrrolizin-7a(5H)-yl)methoxy)quinazolin-7-yl)-1H-indole-4-carbaldehyde] | 0.0001 to 10 µM | 10 to 100 µM
6 | CN1CCC[C@H]1COc1nc(N2C[C@H]3CC[C@@H](C2)N3)c2ccc(-c3c(F)ccc(O)c3F)cc2n1 [P-0164, 3-(4-((1R,5S)-3,8-diazabicyclo[3.2.1]octan-3-yl)-2-(((S)-1-methylpyrrolidin-2-yl)methoxy)quinazolin-7-yl)-2,4-difluorophenol] | 10 to 100 µM | 100 to 1000 µM
7 | Oc1cc(-c2ccc3c(N4[C@@H]5CC[C@H]4CNC5)nc(Nc4cccnc4)nc3c2)c2ccccc2c1 [P-0322, 4-(4-((1R,5S)-3,8-diazabicyclo[3.2.1]octan-8-yl)-2-(pyridin-3-ylamino)quinazolin-7-yl)naphthalen-2-ol] | 10 to 100 µM | 10 to 100 µM
8 | CN1CCC[C@H]1COc1nc(N2[C@@H]3CC[C@H]2CN(CC(O)CN2CCOCC2)C3)c2ccc(-c3cc(O)cc4ccccc34)cc2n1 (stereo partly drawn) [P-0346, 4-(4-((1R,5S)-3-(2-hydroxy-3-morpholinopropyl)-3,8-diazabicyclo[3.2.1]octan-8-yl)-2-(((S)-1-methylpyrrolidin-2-yl)methoxy)quinazolin-7-yl)naphthalen-2-ol] | 0.0001 to 10 µM | 10 to 100 µM
9 | CN1CCC[C@H]1COc1nc(N2C[C@H]3CC[C@@H](C2)N3)c2ccc(-c3cnn4ccccc34)cc2n1 [P-0178, 4-((1R,5S)-3,8-diazabicyclo[3.2.1]octan-3-yl)-2-(((S)-1-methylpyrrolidin-2-yl)methoxy)-7-(pyrazolo[1,5-a]pyridin-3-yl)quinazoline] | 100 to 1000 µM | 100 to 1000 µM
10 | CN1CCCC1COc1nc(N2C[C@H]3CC[C@@H](C2)N3C(=O)NC2CCN(C3CCCCC3)C2)c2ccc(-c3cc(O)cc4ccccc34)c(F)c2n1 (stereo partly drawn) [P-0419, (1R,5S)-N-(1-cyclohexylpyrrolidin-3-yl)-3-(8-fluoro-7-(3-hydroxynaphthalen-1-yl)-2-((1-methylpyrrolidin-2-yl)methoxy)quinazolin-4-yl)-3,8-diazabicyclo[3.2.1]octane-8-carboxamide] | 0.0001 to 10 µM | 10 to 100 µM
11 | O=S(=O)(N[C@@H]1CCNC1)N1[C@@H]2CC[C@H]1CN(c1nc(OCC34CCCN3CCC4)nc3c(F)c(-c4cc(O)cc5ccccc45)ccc13)C2 [P-0284, (1R,5S)-3-(8-fluoro-7-(3-hydroxynaphthalen-1-yl)-2-((tetrahydro-1H-pyrrolizin-7a(5H)-yl)methoxy)quinazolin-4-yl)-N-((R)-pyrrolidin-3-yl)-3,8-diazabicyclo[3.2.1]octane-8-sulfonamide] | 0.0001 to 10 µM | 0.0001 to 10 µM
12 | CN1CCC[C@H]1COc1nc(N2C[C@H]3CC[C@@H](C2)N3)c2ccc(-c3c[nH]c4ccccc34)c(F)c2n1 [P-0293, 4-((1R,5S)-3,8-diazabicyclo[3.2.1]octan-3-yl)-8-fluoro-7-(1H-indol-3-yl)-2-(((S)-1-methylpyrrolidin-2-yl)methoxy)quinazoline] | 0.0001 to 10 µM | 10 to 100 µM
13 | CC(C)(CN)COc1nc(N2C[C@H]3CC[C@@H](C2)N3)c2ccc(-c3cc(O)cc4ccccc34)c(F)c2n1 [P-0618, 4-(2-(3-amino-2,2-dimethylpropoxy)-4-((1R,5S)-3,8-diazabicyclo[3.2.1]octan-3-yl)-8-fluoroquinazolin-7-yl)naphthalen-2-ol] | 0.0001 to 10 µM | 10 to 100 µM
14 | CN1CCC[C@H]1COc1nc(N2[C@@H]3CC[C@H]2CN(C(=O)NCc2ccccn2)C3)c2ccc(-c3cc(O)cc4ccccc34)cc2n1 [P-0216, (1R,5S)-8-(7-(3-hydroxynaphthalen-1-yl)-2-(((S)-1-methylpyrrolidin-2-yl)methoxy)quinazolin-4-yl)-N-(pyridin-2-ylmethyl)-3,8-diazabicyclo[3.2.1]octane-3-carboxamide] | 10 to 100 µM | 10 to 100 µM
15 | CC(C(=O)N1[C@@H]2CC[C@H]1CN(c1nc(OCC34CCCN3CCC4)nc3c(F)c(-c4cc(O)cc5ccccc45)ccc13)C2)S(N)(=O)=O (stereo partly drawn) [P-0449, 1-((1R,5S)-3-(8-fluoro-7-(3-hydroxynaphthalen-1-yl)-2-((tetrahydro-1H-pyrrolizin-7a(5H)-yl)methoxy)quinazolin-4-yl)-3,8-diazabicyclo[3.2.1]octan-8-yl)-1-oxopropane-2-sulfonamide] | 0.0001 to 10 µM | 0.0001 to 10 µM
16 | CN1CCC[C@H]1COc1nc(N2C[C@H]3CC[C@@H](C2)N3CC(=O)C2CCNCC2)c2ccc(-c3cc(O)cc4ccccc34)c(F)c2n1 [P-0467, 2-((1R,5S)-3-(8-fluoro-7-(3-hydroxynaphthalen-1-yl)-2-(((S)-1-methylpyrrolidin-2-yl)methoxy)quinazolin-4-yl)-3,8-diazabicyclo[3.2.1]octan-8-yl)-1-(piperidin-4-yl)ethan-1-one] | 0.0001 to 10 µM | 10 to 100 µM
17 | Oc1cc(-c2ccc3c(N4[C@@H]5CC[C@H]4CNC5)nc(CCc4cccnc4)nc3c2)c2ccccc2c1 [P-0241, 4-(4-((1R,5S)-3,8-diazabicyclo[3.2.1]octan-8-yl)-2-(2-(pyridin-3-yl)ethyl)quinazolin-7-yl)naphthalen-2-ol] | 0.0001 to 10 µM | 0.0001 to 10 µM
18 | CN1CCC[C@H]1COc1nc(N2[C@@H]3CC[C@H]2CN(C(=O)CS(N)(=O)=O)C3)c2ccc(-c3cc(O)cc4ccccc34)cc2n1 [P-0315, 2-((1R,5S)-8-(7-(3-hydroxynaphthalen-1-yl)-2-(((S)-1-methylpyrrolidin-2-yl)methoxy)quinazolin-4-yl)-3,8-diazabicyclo[3.2.1]octan-3-yl)-2-oxoethane-1-sulfonamide] | 10 to 100 µM | 10 to 100 µM
19 | O=C(N[C@H]1CCCNC1)N1[C@@H]2CC[C@H]1CN(c1nc(OCC34CCCN3CCC4)nc3cc(-c4cc(O)cc5ccccc45)ccc13)C2 [P-0142, (1R,5S)-3-(7-(3-hydroxynaphthalen-1-yl)-2-((tetrahydro-1H-pyrrolizin-7a(5H)-yl)methoxy)quinazolin-4-yl)-N-((S)-piperidin-3-yl)-3,8-diazabicyclo[3.2.1]octane-8-carboxamide] | 0.0001 to 10 µM | 0.0001 to 10 µM
20 | CN(C)C1(C)CN(c2nc(N3C[C@H]4CC[C@@H](C3)N4)c3ccc(-c4cc(O)cc5ccccc45)c(F)c3n2)C1 [P-0635, 4-(4-((1R,5S)-3,8-diazabicyclo[3.2.1]octan-3-yl)-2-(3-(dimethylamino)-3-methylazetidin-1-yl)-8-fluoroquinazolin-7-yl)naphthalen-2-ol] | 0.0001 to 10 µM | 10 to 100 µM
21 | Oc1cc(-c2ccc3c(N4C[C@H]5CC[C@@H](C4)N5)nc(N4CC(O)C4)nc3c2F)c2ccccc2c1 [P-0633, 1-(4-((1R,5S)-3,8-diazabicyclo[3.2.1]octan-3-yl)-8-fluoro-7-(3-hydroxynaphthalen-1-yl)quinazolin-2-yl)azetidin-3-ol] | 0.0001 to 10 µM | 100 to 1000 µM
22 | CN1CCC[C@H]1COc1nc(N2[C@@H]3CC[C@H]2CN(C(=O)NC2COCC2(C)C)C3)c2ccc(-c3cc(O)cc4ccccc34)cc2n1 (stereo partly drawn) [P-0212, (1R,5S)-N-(4,4-dimethyltetrahydrofuran-3-yl)-8-(7-(3-hydroxynaphthalen-1-yl)-2-(((S)-1-methylpyrrolidin-2-yl)methoxy)quinazolin-4-yl)-3,8-diazabicyclo[3.2.1]octane-3-carboxamide] | 10 to 100 µM | 10 to 100 µM
23 | C[C@@H](O)C(=O)N1C[C@H]2CC[C@@H](C1)N2c1nc(OC[C@@H]2CCCN2C)nc2cc(-c3cc(O)cc4ccccc34)ccc12 [P-0220, (R)-2-hydroxy-1-((1R,5S)-8-(7-(3-hydroxynaphthalen-1-yl)-2-(((S)-1-methylpyrrolidin-2-yl)methoxy)quinazolin-4-yl)-3,8-diazabicyclo[3.2.1]octan-3-yl)propan-1-one] | 10 to 100 µM | 100 to 1000 µM
